Results as given in patent US12257224B2, “Methods of administration for highly water-soluble salts of a short acting phenylalkylamine calcium channel blocker” (Milestone Pharmaceuticals Inc., priority 2021, dated 2025).
Where two headings read alike, the source gives them in different places.

Experiments:
[1] = Method: Randomized, double-blind, placebo-controlled, ethnobridging PK/PD study, 35, 70 and 105 mg doses were evaluated.
[2] = system: PSVT; experiment: Example 5: heart rate during PSVT prior to conversion to sinus rhythm; format: in vivo, human
Excerpt: Each PSVT was documented by an ambulatory cardiac monitoring system that was placed on the chest after symptoms began. Baseline (average of four values before drug administration), and every minute of heart rate data were captured from baseline until one minute before the PSVT was converted to sinus rhythm. […]

[3] = Example 7: PK analysis, serum concentration after one vs two 70 mg nasal doses; format: in vivo, human; design: serum concentration, Median: unit not given here; settings: for concentration at 13 min / concentration at 15 min: human, serum, other: nasal
Method: The serum concentration of compound I over time from the first administration for the study arm with a single 70 mg dose administration of compound I was compared with the study arm with two 70 mg dose administrations of compound I. The second 70 mg dose of compound I was administered approximately 10 minutes after the first dose.

[4] = system: subjects in sinus rhythm; experiment: Example 4: one vs two 70 mg doses, PR interval and safety; format: in vivo, human
Method: A population of 46 subjects in sinus rhythm received one 70 mg dose of compound I according to the protocol of Example 2, and after several months the dose regimen of 70 mg followed by a repeat same dose of 70 mg 10 minutes later as in the protocol of Example 3.
Two dose administration followed the same protocol as single dose administration for the initial dose, however 10 minutes after the first 70 mg dose of compound I, a second 70 mg dose of compound I was administered. For the second dose, the patients were allowed to blow their nose to remove any excess fluid build-up immediately prior to self-administration of the second 70 mg dose.

[5] = patients who converted to sinus rhythm
[6] = one 70 mg nasal dose, Time 10.5
[7] = one 70 mg nasal dose, Time 11.5
[8] = one 70 mg nasal dose, Time 1450
[9] = two 70 mg nasal doses, second approximately 10 minutes after first, Time 7
[10] = two 70 mg nasal doses, second approximately 10 minutes after first, Time 9
[11] = two 70 mg nasal doses, second approximately 10 minutes after first, Time 10.5
[12] = two 70 mg nasal doses, second approximately 10 minutes after first, Time 11.5
[13] = one and two 70 mg dose regimens

SMILES: COC(=O)c1cccc(CCN(C)CCCC(C#N)(c2ccc(OC)c(OC)c2)C(C)C)c1 (centres unmarked) [compound I, methyl 3-(2-((4-cyano-4-(3,4-dimethoxyphenyl)-5-methylhexyl)(methyl)amino)ethyl)benzoate]
- time at which pharmacodynamic effect began to decrease ([1]; 35, 70 and 105 mg doses): 15 min
- time to increase of PR interval and HR ([1]; 35, 70 and 105 mg doses): ≤ 10 min
- duration of pharmacodynamic effect ([1]; duration of PR prolongation exceeding 10% from baseline): 30 to 45 min
- exposure, dose proportionality ([1]; human, in vivo): increased in a dose proportional manner between 35 and 70 mg but not between the 70 and 105 mg doses
- mean change in heart rate from baseline (±SE) ([2]; 70 mg, 3 min, during PSVT): −10 bpm
- mean change in heart rate from baseline (±SE) ([2]; 70 mg, 10 min, during PSVT): −16 bpm
- mean change in heart rate from baseline (±SE) ([2]; 70 mg, 30 min, during PSVT): −14 bpm
- mean change in heart rate from baseline (±SE) ([2]; 70 mg, 40 min, during PSVT): −13 bpm
- persistence of decrease in heart rate ([2]; 70 mg, during PSVT): sustained through the 60-minute observation period
- mean change in heart rate from baseline (±SE) ([2]; 70 mg, within the first minute, during PSVT): −5 bpm
- maximal change from baseline in heart rate, converters to sinus rhythm in <30 minutes versus >30 minutes [2, 5]: significant difference
- maximal change from baseline in heart rate, converters to sinus rhythm in <60 minutes versus >60 minutes [2, 5]: significant difference
- concentration at 13 min ([3]; two 70 mg nasal doses, second approximately 10 minutes after first, Time 13, read-out: serum concentration, Max): 0.32 µg/mL
- concentration at 13 min ([3]; two 70 mg nasal doses, second approximately 10 minutes after first, Time 13, read-out: serum concentration, Mean): 0.115 µg/mL
- concentration at 13 min ([3]; two 70 mg nasal doses, second approximately 10 minutes after first, Time 13, read-out: serum concentration, Median): 0.0936 µg/mL
- concentration at 13 min ([3]; two 70 mg nasal doses, second approximately 10 minutes after first, Time 13, read-out: serum concentration, Min): 0.0225 µg/mL
- concentration at 15 min ([3]; two 70 mg nasal doses, second approximately 10 minutes after first, Time 15, read-out: serum concentration, Max): 0.317 µg/mL
- concentration at 15 min ([3]; two 70 mg nasal doses, second approximately 10 minutes after first, Time 15, read-out: serum concentration, Mean): 0.11 µg/mL
- concentration at 15 min ([3]; two 70 mg nasal doses, second approximately 10 minutes after first, Time 15, read-out: serum concentration, Median): 0.0769 µg/mL
- concentration at 15 min ([3]; two 70 mg nasal doses, second approximately 10 minutes after first, Time 15, read-out: serum concentration, Min): 0.0252 µg/mL
- serum concentration, Max ([3]; one 70 mg nasal dose, Time 0): 0 µg/mL
- serum concentration, Mean ([3]; one 70 mg nasal dose, Time 0): 0.00
- serum concentration, Median ([3]; one 70 mg nasal dose, Time 0): 0.00
- serum concentration, Min ([3]; one 70 mg nasal dose, Time 0): 0.00
- serum concentration, Max ([3]; one 70 mg nasal dose, Time 0.5): 0 µg/mL
- serum concentration, Mean ([3]; one 70 mg nasal dose, Time 0.5): 0.00
- serum concentration, Median ([3]; one 70 mg nasal dose, Time 0.5): 0.00
- serum concentration, Min ([3]; one 70 mg nasal dose, Time 0.5): 0.00
- serum concentration, Mean ([3]; one 70 mg nasal dose, Time 1.5): 11.79
- serum concentration, Median ([3]; one 70 mg nasal dose, Time 1.5): 5.20
- serum concentration, Min ([3]; one 70 mg nasal dose, Time 1.5): 0.00
- serum concentration, Max ([3]; one 70 mg nasal dose, Time 1.5, in ng/mL): 56.12
- serum concentration, Mean ([3]; one 70 mg nasal dose, Time 3): 62.82
- serum concentration, Median ([3]; one 70 mg nasal dose, Time 3): 32.60
- serum concentration, Min ([3]; one 70 mg nasal dose, Time 3): 11.45
- serum concentration, Max ([3]; one 70 mg nasal dose, Time 3, in ng/mL): 205.27
- serum concentration, Mean ([3]; one 70 mg nasal dose, Time 5): 90.64
- serum concentration, Median ([3]; one 70 mg nasal dose, Time 5): 67.70
- serum concentration, Min ([3]; one 70 mg nasal dose, Time 5): 21.18
- serum concentration, Max ([3]; one 70 mg nasal dose, Time 5, in ng/mL): 191.63
- serum concentration, Mean ([3]; one 70 mg nasal dose, Time 7): 83.04
- serum concentration, Median ([3]; one 70 mg nasal dose, Time 7): 74.22
- serum concentration, Min ([3]; one 70 mg nasal dose, Time 7): 28.61
- serum concentration, Max ([3]; one 70 mg nasal dose, Time 7, in ng/mL): 152.59
- serum concentration, Mean ([3]; one 70 mg nasal dose, Time 9): 73.39
- serum concentration, Median ([3]; one 70 mg nasal dose, Time 9): 69.68
- serum concentration, Min ([3]; one 70 mg nasal dose, Time 9): 25.94
- serum concentration, Max ([3]; one 70 mg nasal dose, Time 9, in ng/mL): 130.50
- serum concentration, Mean [3, 6]: 67.95
- serum concentration, Median [3, 6]: 59.91
- serum concentration, Min [3, 6]: 30.24
- serum concentration, Max ([3]; one 70 mg nasal dose, Time 10.5, in ng/mL): 121.45
- serum concentration, Mean [3, 7]: 66.91
- serum concentration, Median [3, 7]: 59.09
- serum concentration, Min [3, 7]: 31.61
- serum concentration, Max ([3]; one 70 mg nasal dose, Time 11.5, in ng/mL): 119.67
- serum concentration, Mean ([3]; one 70 mg nasal dose, Time 13): 62.34
- serum concentration, Median ([3]; one 70 mg nasal dose, Time 13): 59.07
- serum concentration, Min ([3]; one 70 mg nasal dose, Time 13): 29.29
- serum concentration, Max ([3]; one 70 mg nasal dose, Time 13, in ng/mL): 103.40
- serum concentration, Mean ([3]; one 70 mg nasal dose, Time 15): 57.44
- serum concentration, Median ([3]; one 70 mg nasal dose, Time 15): 52.11
- serum concentration, Min ([3]; one 70 mg nasal dose, Time 15): 26.98
- serum concentration, Max ([3]; one 70 mg nasal dose, Time 15, in ng/mL): 111.44
- serum concentration, Mean ([3]; one 70 mg nasal dose, Time 17): 50.32
- serum concentration, Median ([3]; one 70 mg nasal dose, Time 17): 41.80
- serum concentration, Min ([3]; one 70 mg nasal dose, Time 17): 26.92
- serum concentration, Max ([3]; one 70 mg nasal dose, Time 17, in ng/mL): 90.05
- serum concentration, Mean ([3]; one 70 mg nasal dose, Time 20): 49.43
- serum concentration, Median ([3]; one 70 mg nasal dose, Time 20): 46.51
- serum concentration, Min ([3]; one 70 mg nasal dose, Time 20): 22.74
- serum concentration, Max ([3]; one 70 mg nasal dose, Time 20, in ng/mL): 80.55
- serum concentration, Mean ([3]; one 70 mg nasal dose, Time 25): 41.86
- serum concentration, Median ([3]; one 70 mg nasal dose, Time 25): 42.30
- serum concentration, Min ([3]; one 70 mg nasal dose, Time 25): 19.26
- serum concentration, Max ([3]; one 70 mg nasal dose, Time 25, in ng/mL): 66.12
- serum concentration, Mean ([3]; one 70 mg nasal dose, Time 35): 33.35
- serum concentration, Median ([3]; one 70 mg nasal dose, Time 35): 36.90
- serum concentration, Min ([3]; one 70 mg nasal dose, Time 35): 15.09
- serum concentration, Max ([3]; one 70 mg nasal dose, Time 35, in ng/mL): 51.52
- serum concentration, Mean ([3]; one 70 mg nasal dose, Time 60): 20.41
- serum concentration, Median ([3]; one 70 mg nasal dose, Time 60): 22.06
- serum concentration, Min ([3]; one 70 mg nasal dose, Time 60): 8.89
- serum concentration, Max ([3]; one 70 mg nasal dose, Time 60, in ng/mL): 31.10
- serum concentration, Mean ([3]; one 70 mg nasal dose, Time 100): 13.91
- serum concentration, Median ([3]; one 70 mg nasal dose, Time 100): 12.75
- serum concentration, Min ([3]; one 70 mg nasal dose, Time 100): 6.20
- serum concentration, Max ([3]; one 70 mg nasal dose, Time 100, in ng/mL): 23.24
- serum concentration, Mean ([3]; one 70 mg nasal dose, Time 240): 5.90
- serum concentration, Median ([3]; one 70 mg nasal dose, Time 240): 5.91
- serum concentration, Min ([3]; one 70 mg nasal dose, Time 240): 1.48
- serum concentration, Max ([3]; one 70 mg nasal dose, Time 240, in ng/mL): 11.01
- serum concentration, Max ([3]; one 70 mg nasal dose, Time 370): 0.00608 µg/mL
- serum concentration, Mean ([3]; one 70 mg nasal dose, Time 370): 2.49
- serum concentration, Median ([3]; one 70 mg nasal dose, Time 370): 2.51
- serum concentration, Min ([3]; one 70 mg nasal dose, Time 370): 0.00
- serum concentration, Max ([3]; one 70 mg nasal dose, Time 730): 0.00317 µg/mL
- serum concentration, Mean ([3]; one 70 mg nasal dose, Time 730): 0.76
- serum concentration, Median ([3]; one 70 mg nasal dose, Time 730): 0.00
- serum concentration, Min ([3]; one 70 mg nasal dose, Time 730): 0.00
- serum concentration, Max [3, 8]: 0.0012 µg/mL
- serum concentration, Mean [3, 8]: 0.10
- serum concentration, Median [3, 8]: 0.00
- serum concentration, Min [3, 8]: 0.00
- serum concentration, two 70 mg doses vs single 70 mg dose ([3]; second dose approximately 10 minutes after the first): raised the serum concentration of compound I above that observed with a single 70 mg dose
- serum concentration, Mean [3, 9]: 85.77
- serum concentration, Median [3, 9]: 91.42
- serum concentration, Min [3, 9]: 17.16
- serum concentration, Max ([3]; two 70 mg nasal doses, second approximately 10 minutes after first, Time 7, in ng/mL): 180.76
- serum concentration, Mean [3, 10]: 73.20
- serum concentration, Median [3, 10]: 77.41
- serum concentration, Min [3, 10]: 15.37
- serum concentration, Max ([3]; two 70 mg nasal doses, second approximately 10 minutes after first, Time 9, in ng/mL): 144.91
- serum concentration, Mean [3, 11]: 65.97
- serum concentration, Median [3, 11]: 65.18
- serum concentration, Min [3, 11]: 14.49
- serum concentration, Max ([3]; two 70 mg nasal doses, second approximately 10 minutes after first, Time 10.5, in ng/mL): 143.87
- serum concentration, Mean [3, 12]: 96.77
- serum concentration, Median [3, 12]: 102.11
- serum concentration, Min [3, 12]: 15.52
- serum concentration, Max ([3]; two 70 mg nasal doses, second approximately 10 minutes after first, Time 11.5, in ng/mL): 215.35
- AV block [4, 13]: No new AV block was observed
- lowest systolic blood pressure seen [4, 13]: ≥ 99 mmHg
- severe adverse reactions [4, 13]: No severe adverse reactions were seen
- increase in PR interval ([4]; repeat 70 mg, second dose 10 minutes after the initial dose): 21 ms
- maximum percentage increase in PR interval ([4]; repeat dose of 70 mg): 14%
- duration of PR increase ([4]; repeat dose of 70 mg vs single dose of 70 mg): more prolonged
- increase in PR interval ([4]; single 70 mg administration): 15 ms
- maximum percentage increase in PR interval ([4]; single 70 mg administration): 9%
- heart rate and systolic blood pressure ([4]; single 70 mg dose and two 70 mg doses separated by 10 minutes): remain in normal ranges
- safety and tolerability ([4]; two dose regimen of 70 mg compared to single dose regimen): safe and was well tolerated
